Where two headings read alike, the source gives them in different places.
Legend:
hα4β2WT nAChRs = target: T1, hα4β2WT nAChRs (Homo sapiens, UniProt P17787+P43681); test: Calcium accumulation assay, HEK ts201 cells transiently expressing wild-type hα4β2 nAChRs; type: cell-based
T1 construct: Human nAChR α4 and β2 full-length cDNAs in the vector pSP64 (poly A); expressed in transfected cells; host or cells: HEK ts201 cells
Experimental: (§1) Calcium accumulation assays were performed as described previously with slight modifications. Briefly, HEK ts201 cells, transiently expressing hα4β2WT nAChRs or hα4β2M nAChRs, were plated on 96-well plates at a density of 2.6×10^5 cells per well. Twenty-four hours after plating, the cells were washed and then incubated with fluo-4-AM for 30 minutes at 37°C followed by 30 minutes at 24°C. After incubation, cells were washed and fluorescence was measured at ∼0.7 second intervals using a fluid handling integrated fluorescence plate reader (Flex Station, Molecular Devices, Sunnyvale, CA). […] Functional responses were quantified by first calculating the net fluorescence changes (the difference between control sham-treated and control agonist-treated groups). […] Results were calculated from the number of observations (n) performed in triplicate. Curve fitting was performed by Prism software (GraphPad, San Diego, CA). EC50 values, IC50 values, and Hill coefficients were obtained by averaging values generated from each individual concentration-response curve. EC50 values and IC50 values were expressed as geometric means (95% confidence limits). Experimental values were compared using the t-test (p<0.005), as indicated.
(§2) Human nAChR α4 and β2 full-length cDNAs in the vector pSP64 (poly A) were obtained from Dr. Jon Lindstrom (University of Pennsylvania) and used as the template for mutagenesis (β2) and for transient expression (α4 and β2). A single mutation was made in the β2 subunit using the Quik Change Lightning Multi Site-Directed Mutagenesis Kit (Stratagene) following the manufacturers instructions. Primers were designed using the QuikChange Primer Design Program (Stratagene) and Oligo 4.0 (National Biosciences) and synthesized by Invitrogen. Primers were designed to replace the threonine residue at position 58 in the hβ2 subunit with a lysine found at the similar position in the hβ4 subunit. The following primer was designed to change the threonine (ACC) at position 58 in the β2 subunit to lysine (AAG): β2 mutant 5′-[…]-3′. The underlined nucleotides defined the mutation. Primers were also designed to replace the phenylalanine residue at position 118 in the hβ2 subunit with a leucine found at the similar position in the hβ4 subunit. The following primer was designed to change the phenylalanine (TTC) at position 118 in the β2 subunit to leucine (TTG): 5′-[…]-3′ and 5′- […]-3′. […] The mutant hβ2 cDNAs were subcloned into pcDNA 3.1+Zeo (Invitrogen). The wild type hα4 and hβ2 cDNAs were also subcloned into the pcDNA 3.1+ and pcDNA 3.1+ Zeo vectors respectively. All cDNA clones were completely sequenced using a 3730 DNA Analyzer (Applied Biosystems) at the Ohio State University Plant-Microbe Genomics Facility. DNAs used for transfection were purified using PureLink High Pure Mini or Midi Kits (Invitrogen). HEK ts201 cells (kind gift of Dr. Rene Anand, Ohio State University Department of Pharmacology) were transiently transfected with wild-type hα4 mutant hβ2 or wild-type hα4β2 cDNAs using Lipofectamine 2000 (Invitrogen) in 60 mm dishes. After 8 hours, the cells were replated into 96 well dishes for the intracellular calcium accumulation assays.

hα4β2-T58K nAChRs = target: T2, hα4β2-T58K nAChRs (Homo sapiens, UniProt P17787+P43681, T84K); test: Calcium accumulation assay, HEK ts201 cells transiently expressing hα4β2 β2-T58K mutant nAChRs; type: cell-based
T2 construct: Human nAChR α4 and β2 full-length cDNAs in the vector pSP64 (poly A); expressed in transfected cells; host or cells: HEK ts201 cells
Experimental: as §1, §2

hα4β2-F118L nAChRs = target: T3, hα4β2-F118L nAChRs (Homo sapiens, UniProt P17787+P43681, F144L); test: Calcium accumulation assay, HEK ts201 cells transiently expressing hα4β2 β2-F118L mutant nAChRs; type: cell-based
T3 construct: Human nAChR α4 and β2 full-length cDNAs in the vector pSP64 (poly A); expressed in transfected cells; host or cells: HEK ts201 cells
Experimental: as §1, §2

human α3β4 nAChRs = conditions: tested at concentrations up to 100 µM; cited from earlier work
[1] = Solubility limit in functional assay; type: physicochemical; conditions: read-out: highest soluble test concentration
hα4β2 nAChRs = conditions: introduction, low µM range; cited from earlier work
[2] = target: recombinant hα4β2 receptors; parameters: method as in PMID 8996215, PMID 11044726, PMID 9454827; conditions: read-out: expt. potency, EC50, cited from earlier work
[3] = target: recombinant hα3β4 receptors; parameters: method as in PMID 8996215, PMID 11044726, PMID 9454827; conditions: read-out: expt. potency, EC50, cited from earlier work

T3 sequence (P43681 27-627, stated change not applied): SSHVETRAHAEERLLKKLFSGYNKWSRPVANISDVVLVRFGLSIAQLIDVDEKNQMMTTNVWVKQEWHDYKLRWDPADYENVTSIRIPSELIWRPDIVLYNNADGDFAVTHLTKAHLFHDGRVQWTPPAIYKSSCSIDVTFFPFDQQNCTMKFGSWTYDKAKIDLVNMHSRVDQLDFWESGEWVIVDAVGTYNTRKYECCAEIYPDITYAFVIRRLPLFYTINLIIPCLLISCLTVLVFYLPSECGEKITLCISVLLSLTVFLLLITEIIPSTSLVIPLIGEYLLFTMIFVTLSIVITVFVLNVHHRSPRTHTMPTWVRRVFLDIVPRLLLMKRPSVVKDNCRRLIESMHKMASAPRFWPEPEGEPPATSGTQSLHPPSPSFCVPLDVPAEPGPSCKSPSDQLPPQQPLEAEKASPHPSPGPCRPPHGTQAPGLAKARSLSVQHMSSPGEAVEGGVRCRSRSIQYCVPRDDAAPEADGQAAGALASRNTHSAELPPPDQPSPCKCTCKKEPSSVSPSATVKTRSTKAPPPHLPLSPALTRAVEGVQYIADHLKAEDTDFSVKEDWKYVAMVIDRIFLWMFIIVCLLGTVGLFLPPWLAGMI
T3 sequence (P17787 26-502 F144L): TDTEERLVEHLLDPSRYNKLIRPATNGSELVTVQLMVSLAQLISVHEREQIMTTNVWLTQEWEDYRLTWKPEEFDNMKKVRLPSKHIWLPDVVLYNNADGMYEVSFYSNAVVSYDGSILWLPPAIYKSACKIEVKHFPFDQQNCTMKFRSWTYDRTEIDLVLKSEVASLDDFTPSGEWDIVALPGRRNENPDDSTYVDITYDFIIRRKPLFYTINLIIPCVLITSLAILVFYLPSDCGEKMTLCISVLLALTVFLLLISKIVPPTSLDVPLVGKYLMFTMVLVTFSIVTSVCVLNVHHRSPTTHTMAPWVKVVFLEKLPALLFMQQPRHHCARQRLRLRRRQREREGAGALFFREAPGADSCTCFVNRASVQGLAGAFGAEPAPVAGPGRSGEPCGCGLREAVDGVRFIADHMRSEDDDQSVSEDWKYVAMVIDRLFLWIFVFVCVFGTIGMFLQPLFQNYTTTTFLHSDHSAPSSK
T2 sequence (P43681 27-627, stated change not applied): as the sequence (P43681 27-627, stated change not applied) above
T2 sequence (P17787 26-502 T84K): as the sequence (P17787 26-502 F144L) above, with T59K, L119F counted along it
T1 sequence (P43681 29-627 limits assumed): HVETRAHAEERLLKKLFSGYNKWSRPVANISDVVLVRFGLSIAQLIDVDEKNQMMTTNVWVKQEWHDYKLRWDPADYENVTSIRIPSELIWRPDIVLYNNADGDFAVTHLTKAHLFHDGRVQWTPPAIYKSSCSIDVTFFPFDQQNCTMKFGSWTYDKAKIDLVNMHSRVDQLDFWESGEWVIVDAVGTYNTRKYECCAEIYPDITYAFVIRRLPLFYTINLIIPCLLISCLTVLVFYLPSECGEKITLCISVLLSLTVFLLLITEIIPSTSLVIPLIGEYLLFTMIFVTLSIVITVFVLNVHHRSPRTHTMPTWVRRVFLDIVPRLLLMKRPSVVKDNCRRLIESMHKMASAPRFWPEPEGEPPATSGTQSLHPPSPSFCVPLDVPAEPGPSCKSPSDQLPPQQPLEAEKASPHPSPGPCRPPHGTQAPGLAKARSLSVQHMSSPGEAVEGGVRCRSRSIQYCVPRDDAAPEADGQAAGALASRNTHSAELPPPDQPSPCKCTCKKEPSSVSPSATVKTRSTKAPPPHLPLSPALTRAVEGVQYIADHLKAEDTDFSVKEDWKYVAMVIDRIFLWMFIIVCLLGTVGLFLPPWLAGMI
T1 sequence (P17787 26-502): as the sequence (P17787 26-502 F144L) above, with L119F counted along it

| Compound | IC50 (hα4β2-F118L nAChRs) [µM] | n H, Hill coefficient (hα4β2WT nAChRs; hα4β2-WT nAChRs) | IC50 (hα4β2WT nAChRs; read-out: IC50) [µM] | n H, Hill coefficient (hα4β2-T58K nAChRs; hα4β2-T58K nAChRs) | IC50 (hα4β2-T58K nAChRs; read-out: IC50) [µM] | EC50 ([2]; hα4β2) [µM] | EC50 ([3]; hα3β4) [µM] | n H, Hill coefficient (hα4β2-F118L nAChRs; hα4β2-F118L nAChRs) | other results |
| --- | --- | --- | --- | --- | --- | --- | --- | --- | --- |
| COc1cc2c3cc1Oc1cc(ccc1O)C[C@@H]1c4c(cc(OC)c(O)c4Oc4ccc(cc4)C[C@@H]3N(C)CC2)CC[N+]1(C)C [d-tubocurarine] | 6.5 | – | – | – | – | – | – | – | IC50 (hα4β2WT nAChRs): 6.3 µM; n H, Hill coefficient (hα4β2WT nAChRs): −1.0; IC50 (hα4β2-T58K nAChRs): 6.2 µM; n H, Hill coefficient (hα4β2-T58K nAChRs): −0.6; n H, Hill coefficient (hα4β2-F118L nAChRs): −0.9 |
| O=C(OCC1CCCN(CCCc2ccccc2)C1)c1ccccc1-c1ccccc1 (stereo not shown) [KAB-18] | > 100 | −1.2 | 8.5 | −1.0 | 71.8 | – | – | – | functional activity on human α3β4 nAChRs (human α3β4 nAChRs): no functional activity; solubility [1]: ≤ 100 µM; decrease in potency, β2T58K mutant vs wild-type (hα4β2-T58K nAChRs; ratio of IC50 71.8 µM (T58K) to 8.5 µM (WT)): eight-fold decrease; potency (inhibition of hα4β2 nAChRs) (hα4β2 nAChRs): 10 µM; inhibitory activity on F118L mutant (hα4β2-F118L nAChRs; at concentrations up to 100 µM): loss of inhibitory activity |
| Clc1ccc(C2CC3CCC2N3)cn1 (stereo not shown) [epibatidine] | – | 0.9 | – | 0.7 | – | 0.043 | 0.151 | 0.8 | – |
| CC(=O)OCC[N+](C)(C)C [acetylcholine] | – | – | – | – | – | 100 | 203 | – | – |
| CNC1(C)C2CCC(C2)C1(C)C (stereo not shown) [mecamylamine] | – | −1.4 | 0.2 | −0.6 | 0.2 | – | – | −1.1 | IC50 (hα4β2-F118L nAChRs; read-out: IC50): 0.4 µM |
| CN1CCC[C@H]1c1cccnc1 [nicotine] | – | – | – | – | – | – | – | – | EC50 [2]: 3.5 µM; EC50 [3]: 40.3 µM |

Reference: paper PMC3174232, “Identification of a Negative Allosteric Site on Human α4β2 and α3β4 Neuronal Nicotinic Acetylcholine Receptors” (PLoS ONE, 2011)
